From patent publication US9326513B2, “Fungicidal compositions” (Syngenta Participations AG, priority 2011, dated 2016)
Where two headings read alike, the source gives them in different places.

What was measured:
Botrytis cinerea = Botrytis cinerea (gray mould), PDB microtiter plate, visual after 72 hrs; assay type: cell-based; settings: for inhibition at 0.125 ppm: rate 0.125 ppm; for inhibition at 0.25 ppm: rate 0.25 ppm; for inhibition at 0.5 ppm: rate 0.5 ppm
[1] = tested on: Mycosphaerella arachidis (y. Cercospora arachidicola); assay: Mycosphaerella arachidis (brown leaf spot of groundnut), PDB microtiter plate, visual after 5-6 days; assay type: cell-based
[2] = tested on: Monographella nivalis (syn. Microdochium nivale, Fusarium nivale); assay: Monographella nivalis (snow mould, foot rot of cereals), PDB microtiter plate, visual after 72 hrs; assay type: cell-based; settings: Monographella nivalis, applied alone
[3] = tested on: Blumeria graminis f. sp. tritici (Erysiphe graminis f. sp. tritici); assay: Blumeria graminis f. sp. tritici / wheat / leaf disc preventative (powdery mildew on wheat); assay type: in vivo; settings: foliar, compared to untreated control leaf disks, read-out: disease control
Method in brief: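 Preventative leaf-disc test: compound (200 ppm) was sprayed onto cv. Kanzler wheat segments, which were dusted with conidia from infected plants 1 day after application. After incubation at 20° C and 60% rh, disease control relative to untreated segments was rated 6-8 days after application.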

[4] = tested on: Puccinia recondita f. sp. tritici; assay: Puccinia recondita f. sp. tritici / wheat / leaf disc curative (brown rust); assay type: in vivo; settings: foliar, compared to untreated control leaf disks, read-out: disease control
Method: Puccinia recondita f. sp. tritici/Wheat/Leaf Disc Curative (Brown Rust) Wheat leaf segments cv. Kanzler are placed on agar in multiwell plates (24-well format). The leaf segments are inoculated with a spore suspension of the fungus. Plates were stored in darkness at 19° C. and 75% rh. The formulated test compound diluted in water was applied 1 day after inoculation.

Pyrenophora teres = Pyrenophora teres / barley / leaf disc preventative (net blotch); assay type: in vivo; settings: foliar, compared to untreated control leaf disks, read-out: disease control
Excerpt: Pyrenophora teres/Barley/Leaf Disc Preventative (Net Blotch) Barley leaf segments cv. Hasso were placed on agar in a multiwell plate (24-well format) and sprayed with the formulated test compound diluted in water. The leaf segments were inoculated with a spore suspension of the fungus 2 days after application.

[5] = tested on: Puccinia recondita f. sp. tritici; assay: Puccinia recondita f. sp. tritici / wheat / leaf disc preventative (brown rust); assay type: in vivo; settings: foliar, compared to untreated control leaf disks, read-out: disease control
Excerpt: Puccinia recondita f. sp. tritici/Wheat/Leaf Disc Preventative (Brown Rust) Wheat leaf segments cv. Kanzler were placed on agar in multiwell plates (24-well format) and sprayed with the formulated test compound diluted in water. The leaf disks were inoculated with a spore suspension of the fungus 1 day after application.

Septoria tritici [6] = assay: Septoria tritici (leaf blotch), YBG microtiter plate, photometric growth inhibition after 6 days; assay type: cell-based; settings: Zymoseptoria tritici, 144 h; for inhibition of growth at 0.15625 ppm: read-out: Activity
Excerpt: In the following Tables ‘Activity (%)’ means the assessed experimental activity (% disease control in this test when compared to untreated control leaf disks under the same conditions, which show extensive disease development) and “P” is the expected value calculated (expected) activity according to the COLBY formula (see above). The column headed ‘S?’ indicates whether or not synergy was observed, with ‘y’ meaning that synergy was observed.
Septoria tritici (Leaf Blotch):
After placing solutions of the test compounds (containing 0.2% DMSO) into a microtiter plate (96-well format), an equal amount of the nutrient broth (YBG) was added to each of the well. Finally the fungal spore solution was added. The test plates were incubated at 20° C. The inhibition of growth was determined photometrically after 6 days and the activity calculated in relation to untreated control.

Septoria tritici [7] = assay: Septoria tritici (leaf blotch), PDB microtiter plate, visual after 72 hrs; assay type: cell-based; settings: Zymoseptoria tritici, read-out: Activity (%)
Septoria tritici [8] = assay: Septoria tritici on wheat, preventive treatment; assay type: in vivo; settings: solo, wheat Riband, 1 day preventive, 18 days after application
[9] = Botrytis cinerea, single compound

Q: With `CC(Cc1ccc(C(C)(C)C)cc1)CN1C[C@@H](C)O[C@@H](C)C1` (stereo partly shown) [Fenpropimorph] as the compound, how does the inhibition at 0.0625 ppm (Botrytis cinerea; Botrytis cinerea, alone, rate 0.0625 ppm, read-out: Activity (%)) read?
A: The inhibition at 0.0625 ppm was 0%.

Q: And the inhibition at 0.125 ppm (Botrytis cinerea; Botrytis cinerea, alone)?
A: Its inhibition at 0.125 ppm is 0%.

Q: And the inhibition at 0.25 ppm (Botrytis cinerea; Botrytis cinerea, alone)?
A: The inhibition at 0.25 ppm was 0%.

Q: What about the inhibition at 0.5 ppm (Botrytis cinerea; Botrytis cinerea, alone) of the same compound?
A: Its inhibition at 0.5 ppm is 70%.

Q: What about the inhibition at 0.125 ppm (Botrytis cinerea; [9]) of the same compound?
A: The inhibition at 0.125 ppm was 0%.

Q: What about the inhibition at 0.25 ppm (Botrytis cinerea; [9]) of the same compound?
A: The inhibition at 0.25 ppm was 0%.

Q: What about the inhibition at 0.5 ppm (Botrytis cinerea; [9]) of the same compound?
A: The inhibition at 0.5 ppm was 70%.

Q: And the inhibition at 0.00390625 ppm ([1]; Mycosphaerella arachidis, single compound, 0.00390625 ppm, read-out: Activity (%))?
A: The inhibition at 0.00390625 ppm was 20%.

Q: And the inhibition at 0.0078125 ppm ([1]; Mycosphaerella arachidis, single compound, 0.0078125 ppm, read-out: Activity (%))?
A: Its inhibition at 0.0078125 ppm is 20%.

Q: What about the inhibition at 0.015625 ppm ([1]; Mycosphaerella arachidis, single compound, 0.015625 ppm, read-out: Activity (%)) of the same compound?
A: Its inhibition at 0.015625 ppm is 50%.

Q: And the inhibition at 0.03125 ppm ([1]; Mycosphaerella arachidis, single compound, 0.03125 ppm, read-out: Activity (%))?
A: The inhibition at 0.03125 ppm was 50%.

Q: And the inhibition at 0.0625 ppm ([1]; Mycosphaerella arachidis, single compound, 0.0625 ppm, read-out: Activity (%))?
A: The inhibition at 0.0625 ppm was 70%.

Q: What about the inhibition at 0.0625 ppm ([2]; 0.0625 ppm) of the same compound?
A: Its inhibition at 0.0625 ppm is 0%.

Q: And the inhibition at 0.125 ppm ([2]; 0.125 ppm)?
A: The inhibition at 0.125 ppm was 0%.

Q: What about the inhibition at 0.25 ppm ([2]; 0.25 ppm) of the same compound?
A: Its inhibition at 0.25 ppm is 0%.

Q: What about the inhibition at 0.5 ppm ([2]; 0.5 ppm) of the same compound?
A: Its inhibition at 0.5 ppm is 0%.

Q: And the inhibition at 2 ppm ([2]; 2 ppm)?
A: Its inhibition at 2 ppm is 20%.

Q: What about the inhibition at 0.0078125 ppm ([2]; rate 0.0078125 ppm) of the same compound?
A: Its inhibition at 0.0078125 ppm is 0%.

Q: And the inhibition at 0.015625 ppm ([2]; rate 0.015625 ppm)?
A: Its inhibition at 0.015625 ppm is 0%.

Q: What about the inhibition at 0.03125 ppm ([2]; rate 0.03125 ppm) of the same compound?
A: Its inhibition at 0.03125 ppm is 0%.

Q: What about the inhibition at 0.0625 ppm ([2]; rate 0.0625 ppm) of the same compound?
A: The inhibition at 0.0625 ppm was 0%.

Q: What about the inhibition at 0.125 ppm ([2]; rate 0.125 ppm) of the same compound?
A: Its inhibition at 0.125 ppm is 0%.

Q: Which pest or weed control at 200 ppm [3] does the source give for `CCN(C)/C=N/c1cc(Br)c(OCc2cc(C)cc(C)c2)nc1C` [Q.207] here?
A: The pest or weed control at 200 ppm was at least 50%.

Q: And the pest or weed control at 200 ppm [4]?
A: Its pest or weed control at 200 ppm is at least 50%.

Q: And the melting point?
A: The melting point was 57 to 58 °C.

Q: And the pest or weed control at 200 ppm (Pyrenophora teres)?
A: The pest or weed control at 200 ppm was at least 50%.

Q: What about the pest or weed control at 200 ppm [5] of the same compound?
A: The pest or weed control at 200 ppm was at least 50%.

Q: Which results are given for `CC(C)(C)C(O)(CCc1ccc(Cl)cc1)Cn1cncn1` (stereo not shown) [Tebuconazole]?
A: inhibition of growth at 1.25 ppm (Septoria tritici [6]; solo, rate 1.25 ppm): 0%; inhibition of growth at 2.5 ppm (Septoria tritici [6]; solo, rate 2.5 ppm): 47%; inhibition of growth at 5 ppm (Septoria tritici [6]; solo, rate 5 ppm): 73%

Q: What does the source list for `CCN(C)/C=N/c1cc(Br)c(OCc2c(C)cccc2C)nc1C` [Q.325]?
A: pest or weed control at 200 ppm [3]: ≥ 50%; pest or weed control at 200 ppm [4]: ≥ 50%; melting point: 56 to 57 °C; pest or weed control at 200 ppm [5]: ≥ 50%

Q: Which results are given for `Fc1ccc([C@]2(Cn3cncn3)O[C@H]2c2ccccc2Cl)cc1` (racemic) [Epoxiconazole]?
A: inhibition of growth at 0.15625 ppm (Septoria tritici [6]; solo, rate 0.15625 ppm): 65%; inhibition of growth at 0.625 ppm (Septoria tritici [6]; solo, rate 0.625 ppm): 71%

Q: Which results are given for `N#Cc1c[nH]cc1-c1cccc2c1OC(F)(F)O2` [Fludioxonil]?
A: inhibition at 0.03125 ppm (Botrytis cinerea; Botrytis cinerea, read-out: Activity (%), alone, rate 0.03125 ppm): 0%; inhibition at 0.0625 ppm (Botrytis cinerea; Botrytis cinerea, read-out: Activity (%), alone, rate 0.0625 ppm): 70%; Activity (%) (Botrytis cinerea; alone, rate 0.0625 ppm): 50%; inhibition at 0.25 ppm (Septoria tritici [7]): 70%; inhibition at 0.00390625 ppm ([1]; Mycosphaerella arachidis, read-out: Activity (%), single compound, 0.00390625 ppm): 0%; inhibition at 0.0078125 ppm ([1]; Mycosphaerella arachidis, read-out: Activity (%), single compound, 0.0078125 ppm): 0%; inhibition at 0.015625 ppm ([1]; Mycosphaerella arachidis, read-out: Activity (%), single compound, 0.015625 ppm): 0%; inhibition at 0.03125 ppm ([1]; Mycosphaerella arachidis, read-out: Activity (%), single compound, 0.03125 ppm): 0%; inhibition at 0.0625 ppm ([1]; Mycosphaerella arachidis, read-out: Activity (%), single compound, 0.0625 ppm): 0%; inhibition at 0.125 ppm ([1]; Mycosphaerella arachidis, read-out: Activity (%), single compound, 0.125 ppm): 0%; inhibition at 0.25 ppm ([1]; Mycosphaerella arachidis, read-out: Activity (%), single compound, 0.25 ppm): 0%; inhibition at 0.5 ppm ([1]; Mycosphaerella arachidis, read-out: Activity (%), single compound, 0.5 ppm): 70%; Activity (%) ([1]; single compound, 0.5 ppm): 50%

Q: With `CCN(C)/C=N/c1cc(Br)c(OCc2cc(C)ns2)nc1C` [Q.235] as the compound, how does the pest or weed control at 200 ppm [3] read?
A: The pest or weed control at 200 ppm was at least 50%.

Q: What about the pest or weed control at 200 ppm [4] of the same compound?
A: The pest or weed control at 200 ppm was at least 50%.

Q: And the melting point?
A: The melting point was 55 to 57 °C.

Q: What about the pest or weed control at 200 ppm (Pyrenophora teres) of the same compound?
A: The pest or weed control at 200 ppm was at least 50%.

Q: And the pest or weed control at 200 ppm [5]?
A: The pest or weed control at 200 ppm was at least 50%.

Q: With `OC(c1cccnc1)c1c(-c2ccc(Cl)cc2F)noc1-c1ccc(F)cc1F` (stereo not shown) [(VII), [3-(4-chloro-2-fluoro-phenyl)-5-(2,4-difluoro-phenyl)-isoxazol-4-yl]-pyridin-3-yl-methanol, reference compound] as the compound, how does the Activity (Septoria tritici [8]; 3 g a.i./ha) read?
A: Its Activity is 0%.

Q: What about the Activity (Septoria tritici [8]; 9 g a.i./ha) of the same compound?
A: Its Activity is 20%.

Q: And the Activity (Septoria tritici [8]; 27 g a.i./ha)?
A: Its Activity is 96%.

Q: Which melting point does the source give for `CCN(C)/C=N/c1cc(Br)c(OC(C)c2ccccc2-c2ccccc2)nc1C` (stereo not shown) [Q.295] here?
A: Its melting point is 59 to 62 °C.

Q: And the pest or weed control at 200 ppm [5]?
A: Its pest or weed control at 200 ppm is at least 50%.

Q: With `CCN(C)/C=N/c1cc(Br)c(OCCc2cc(C)cc(C)c2)nc1C` [Q.422] as the compound, how does the melting point read?
A: Its melting point is 61 to 63 °C.

Q: For `CC1COC(Cn2cncn2)(c2ccc(Oc3ccc(Cl)cc3)cc2Cl)O1` (stereo not shown) [Difenoconazole], which inhibition of growth at 0.15625 ppm (Septoria tritici [6]) is on record?
A: The inhibition of growth at 0.15625 ppm was 48%.

Q: And the Activity (Septoria tritici [8]; 0.33 g a.i./ha)?
A: Its Activity is 0%.

Q: What about the Activity (Septoria tritici [8]; 1 g a.i./ha) of the same compound?
A: The Activity was 0%.

Q: And the Activity (Septoria tritici [8]; 3 g a.i./ha)?
A: The Activity was 0%.

Q: What about the Activity (Septoria tritici [8]; 9 g a.i./ha) of the same compound?
A: Its Activity is 3%.

Q: And the Activity (Septoria tritici [8]; 27 g a.i./ha)?
A: Its Activity is 5%.

Q: For `CCN(C)/C=N/c1cc(Br)c(OCc2cccc(NC(=O)OC(C)(C)C)c2)nc1C` [Q.236], which pest or weed control at 200 ppm [4] is on record?
A: The pest or weed control at 200 ppm was at least 50%.

Q: What about the melting point of the same compound?
A: The melting point was 40 to 42 °C.

Q: What about the pest or weed control at 200 ppm (Pyrenophora teres) of the same compound?
A: Its pest or weed control at 200 ppm is at least 50%.

Q: And the pest or weed control at 200 ppm [5]?
A: Its pest or weed control at 200 ppm is at least 50%.
